Results taken from US10881110B2, “Herbicidal compositions comprising isoxazolo[5,4-b]pyridines” (BASF SE, priority 2014, dated 2021).
Like-named read-outs stand apart in the source and are kept apart here.

Columns and labels:
Experiment in all cases: greenhouse post-emergence herbicidal test
APESV = format: in vivo, Apera spica-venti; parameters: key to herbicidal activity against APESV found: rating on a scale from 0 to 100; details: post emergence; for pest or weed control at 31.25 g/ha / pest or weed control at 62.5 g/ha / pest or weed control at 125 g/ha: Apera spica-venti, post-emergence, 480 h, read-out: herbicidal activity against APESV found
Outline: (§1)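 Each species was sown separately, grown to a height of 1 to 15 cm and then sprayed with water-dispersed components A, B and where relevant C. Growth conditions were 10-25° C or 20-35° C, and percent damage was recorded at 20 days.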

MATCH = format: in vivo, Matricaria recutita; parameters: key to herbicidal activity against MATCH found: rating on a scale from 0 to 100; details: post emergence
Outline: as §1

POLAV = format: in vivo, Polygonum aviculare; parameters: key: rating on a scale from 0 to 100; details: 62.5 g/ha a.i.
Outline: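 Post-emergence greenhouse test: plants in loamy sand, sprayed at 1–15 cm height with aqueous spray liquor from 10% emulsion concentrates, kept at 10-25 °C or 20-35 °C by species. Damage scored 0–100 (100 = complete destruction), usually 20 days after treatment. Expected additive effect E from Colby: E=X+Y−(X·Y/100).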

[1] = I.1 15.62 g/ha, B.95 1 g/ha a.i.
[2] = applied alone at 31.25 g/ha a.i.

O=C(O)c1cc(C2CC2)nc2onc(C3CC3)c12 [I.1]
pest or weed control at 31.25 g/ha (APESV; I.1 alone 31.25 g/ha a.i.): 0% | pest or weed control at 62.5 g/ha (APESV; I.1 alone 62.5 g/ha a.i.): 0% | pest or weed control at 125 g/ha (APESV; I.1 alone 125 g/ha a.i.): 0% | pest or weed control at 31.25 g/ha (APESV; 31.25 g/ha a.i.): 0% | pest or weed control at 62.5 g/ha (APESV; 62.5 g/ha a.i.): 0% | pest or weed control at 125 g/ha (APESV; I.1 125 g/ha a.i.): 15% | pest or weed control at 31.25 g/ha (APESV; single active, 31.25 g/ha a.i.): 0% | pest or weed control at 62.5 g/ha (APESV; single active, 62.5 g/ha a.i.): 0% | pest or weed control at 125 g/ha (APESV; single active, 125 g/ha a.i.): 0% | herbicidal activity against APESV found (APESV; I.1 15.62 g/ha, B.88 1 g/ha a.i.): 0 | herbicidal activity against APESV found (APESV; [1]): 0 | herbicidal activity against APESV found (APESV; I.1 31.25 g/ha, B.88 1 g/ha a.i.): 0 | herbicidal activity against APESV found (APESV; I.1 31.25 g/ha, B.88 2 g/ha a.i.): 0 | herbicidal activity against APESV found (APESV; I.1 62.5 g/ha, B.88 1 g/ha a.i.): 10 | herbicidal activity against APESV found (APESV; I.1 62.5 g/ha, B.88 2 g/ha a.i.): 10 | herbicidal activity against APESV found (APESV; I.1 62.5 g/ha, B.95 1 g/ha a.i.): 10 | herbicidal activity against APESV found (APESV; a.i. g/ha: I.1 2.3, B.67 62.5, 20 days after treatment): 0% | herbicidal activity against APESV found (APESV; a.i. g/ha: I.1 6.9, B.67 62.5, 20 days after treatment): 0% | herbicidal activity against APESV found (APESV; [2]): 0 | herbicidal activity against APESV found (APESV; applied alone at 125 g/ha a.i.): 15 | herbicidal activity against APESV found (APESV; g/ha a.i.: I.1 31.25, B.24 1, mixture 31.25+1): 20 | herbicidal activity against APESV found (APESV; g/ha a.i.: I.1 62.5, B.20 4, mixture 62.5+4): 20 | herbicidal activity against APESV found (APESV; g/ha a.i.: I.1 62.5, B.52 2.5, mixture 62.5+2.5): 20 | herbicidal activity against APESV found (APESV; g/ha a.i.: I.1 125, B.52 2.5, mixture 125+2.5): 35 | pest or weed control at 31.25 g/ha (MATCH; Matricaria chamomilla, post-emergence, 480 h, I.1 alone 31.25 g/ha a.i., read-out: herbicidal activity against MATCH found): 0% | pest or weed control at 125 g/ha (MATCH; Matricaria chamomilla, post-emergence, 480 h, I.1 alone 125 g/ha a.i., read-out: herbicidal activity against MATCH found): 0% | pest or weed control at 62.5 g/ha (MATCH; Matricaria chamomilla, post-emergence, 480 h, 62.5 g/ha a.i., read-out: herbicidal activity against MATCH found): 50% | pest or weed control at 31.25 g/ha (MATCH; Matricaria chamomilla, post-emergence, 480 h, I.1 31.25 g/ha a.i., read-out: herbicidal activity against MATCH found): 20% | pest or weed control at 62.5 g/ha (MATCH; Matricaria chamomilla, post-emergence, 480 h, I.1 62.5 g/ha a.i., read-out: herbicidal activity against MATCH found): 30% | pest or weed control at 31.25 g/ha (MATCH; Matricaria chamomilla, post-emergence, 480 h, single active, 31.25 g/ha a.i., read-out: herbicidal activity against MATCH found): 15% | pest or weed control at 62.5 g/ha (MATCH; Matricaria chamomilla, post-emergence, 480 h, single active, 62.5 g/ha a.i., read-out: herbicidal activity against MATCH found): 60% | herbicidal activity against MATCH found (MATCH; 6 days after treatment, g/ha a.i.: I.1 31.25, naptalam 50, mixture 31.25+50): 0 | herbicidal activity against MATCH found (MATCH; 6 days after treatment, g/ha a.i.: I.1 31.25, naptalam 100, mixture 31.25+100): 0 | herbicidal activity against MATCH found (MATCH; 6 days after treatment, g/ha a.i.: I.1 62.5, naptalam 50, mixture 62.5+50): 10 | herbicidal activity against MATCH found (MATCH; [1]): 10 | herbicidal activity against MATCH found (MATCH; I.1 31.25 g/ha, B.95 1 g/ha a.i.): 10 | herbicidal activity against MATCH found (MATCH; I.1 31.25 g/ha, B.95 2 g/ha a.i.): 10 | herbicidal activity against MATCH found (MATCH; I.1 62.5 g/ha, B.167 62.5 g/ha a.i.): 0 | herbicidal activity against MATCH found (MATCH; I.1 62.5 g/ha, B.167 125 g/ha a.i.): 0 | herbicidal activity against MATCH found (MATCH; I.1 62.5 g/ha, B.95 2 g/ha a.i.): 65 | herbicidal activity against MATCH found (MATCH; a.i. g/ha: I.1 20.8, B.192 62.5, 20 days after treatment): 60% | herbicidal activity against MATCH found (MATCH; a.i. g/ha: I.1 20.8, B.79 25, 20 days after treatment): 60% | herbicidal activity against MATCH found (MATCH; a.i. g/ha: I.1 31.25, B.67 125, 20 days after treatment): 30% | herbicidal activity against MATCH found (MATCH; a.i. g/ha: I.1 31.25, B.67 125, 20 days after treatment, sub-table r36-r43): 30% | herbicidal activity against MATCH found (MATCH; a.i. g/ha: I.1 31.25, B.69 25, 20 days after treatment): 30% | herbicidal activity against MATCH found (MATCH; a.i. g/ha: I.1 62.5, B.191 225, 20 days after treatment): 30% | herbicidal activity against MATCH found (MATCH; a.i. g/ha: I.1 62.5, B.67 125, 20 days after treatment): 0% | herbicidal activity against MATCH found (MATCH; application rate a.i.: I.1 20.8 g/ha, B.107 (topramezone) 6 g/ha, alone or as mixture (composition 1.107)): 60 | herbicidal activity against MATCH found (MATCH; application rate a.i.: I.1 31.25 g/ha, B.87 (carfentrazone-ethyl) 1.75 g/ha, alone or as mixture (composition 1.87)): 35 | herbicidal activity against MATCH found (MATCH; application rate a.i.: I.1 62.5 g/ha, B.84 (paraquat-dichloride) 17.5 g/ha, alone or as mixture (composition 1.84)): 80 | herbicidal activity against MATCH found (MATCH; application rate a.i.: I.1 62.5 g/ha, B.87 (carfentrazone-ethyl) 1.75 g/ha, alone or as mixture (composition 1.87)): 80 | herbicidal activity against MATCH found (MATCH; [2]): 25 | herbicidal activity against MATCH found (MATCH; g/ha a.i.: I.1 31.25, B.24 2, mixture 31.25+2): 25 | herbicidal activity against MATCH found (MATCH; g/ha a.i.: I.1 125, B.24 2, mixture 125+2): 75 | herbicidal activity against MATCH found (MATCH; g/ha a.i.: I.1 125, B.63 0.5, mixture 125+0.5): 75 | herbicidal activity against POLAV found (POLAV): 65
